Data set [1] in a line: Aqueous solubility determination. Type of data set: physicochemical.
Data set [2] is described as follows: Human liver microsome stability assay. Type of data set: in vitro ADME. The following applies: for microsomal CLint at 1 μM: human, human liver microsomes, pH 7.4; for HLM t1/2: human liver microsomes 0.1 mg/mL, 1 μM compound, 37 °C, at least two experiments. In general terms: Liver microsomes are a subcellular fraction often used to study metabolism.
The test system of data set [3] is HIV-1 NL4-3 (wild-type). The experiment in a line: microbe, parasite or virus in culture. The format is cell-based. The following applies: for EC50: Human immunodeficiency virus 1, NL43, TZM-bl; for SI (selectivity index): ratio CC50/EC50.
Data set [4] can be described thus: In vitro cytotoxicity in TZM-bl cells. The format is cell-based. The following applies: human.

Structures are written as SMILES. ≈ marks a conversion by molar mass, not a printed value. Like-named read-outs stand apart in the source and are kept apart here. A value given as a limit tells only on which side of the number the result lay.

We go through 15 compounds from paper PMC3462592 (Journal of medicinal chemistry, 2012).

A word on the solubility: it is the dissolved amount per volume that the medium holds. Read a low solubility as little dissolved substance. In the case of `Cc1cc(CO)cc(C)c1Oc1cc(Nc2ccc(C#N)cc2)c(N)cc1CO` [13e, N^1-(4′-Cyanophenyl)-5-(2″,6″-dimethyl-4″-hydroxymethylphenoxy)-4-hydroxymethylbenzene-1,2-diamine], the solubility at 4 h in data set [1] (0.01 M HCl, pH 2) is 20.9 to 44.7 µg/mL (≈ 53.7 to 115 µM).

A word on the microsomal CLint: it is the capacity of the preparation to metabolise the compound, expressed as a volume cleared per time. Low readings indicate slow turnover, high ones rapid turnover. Consider `Cc1cc(/C=C/C#N)cc(C)c1Oc1cc(Nc2ccc(C#N)cc2)c(N)cc1C(F)(F)F` [14a, (E)-N^1-(4′-Cyanophenyl)-5-(4″-cyanovinyl-2″,6″-dimethylphenoxy)-4-trifluoromethylbenzene-1,2-diamine], for which the microsomal CLint at 1 μM in data set [2] worked out at 150 µL/min/mg.

Usually EC50 stands for the midpoint of the concentration-response curve. Take `COC(=O)c1cc(N)c(Nc2ccc(C#N)cc2)cc1Oc1c(C)cc(/C=C/C#N)cc1C` [14c, (E)-N^1-(4′-Cyanophenyl)-5-(4″-cyanovinyl-2″,6″-dimethylphenoxy)-4-methoxycarbonylbenzene-1,2-diamine]: the concentration for a half-maximal effect (EC50) in data set [3] was found to be 2.74 nM; in data set [3] (read-out: EC50 NL4-3 (wt)), 2.74 ± 0.71 nM. In addition, the intrinsic clearance (microsomal CLint) at 1 μM in data set [2] worked out at 20 µL/min/mg.

Take `Cc1cc(/C=C/C#N)cc(C)c1Oc1cc(Nc2ccc(C#N)cc2)c(N)cc1C(=O)O` [14d, (E)-4-Carboxy-N^1-(4′-cyanophenyl)-5-(4″-cyanovinyl-2″,6″-dimethylphenoxy)benzene-1,2-diamine]: the EC50 in data set [3] (read-out: EC50 NL4-3 (wt)) was determined as 230 ± 38 nM.

In the case of `Cc1cc(/C=C/C#N)cc(C)c1Oc1cc(Nc2ccc(C#N)cc2)c(N)cc1C(N)=O` [14e, (E)-4-Carbamoyl-N^1-(4′-cyanophenyl)-5-(4″-cyanovinyl-2″,6″-dimethylphenoxy)benzene-1,2-diamine], the EC50 was 0.87 nM in data set [3], 0.87 nM in data set [3] (read-out: EC50 NL4-3) and 0.87 ± 0.28 nM in data set [3] (read-out: EC50 NL4-3 (wt)).

In the case of `CNC(=O)c1cc(N)c(Nc2ccc(C#N)cc2)cc1Oc1c(C)cc(/C=C/C#N)cc1C` [14f, (E)-N^1-(4′-Cyanophenyl)-5-(4″-cyanovinyl-2″,6″-dimethylphenoxy)-4-methylcarbamoylbenzene-1,2-diamine], the values for the concentration giving a half-maximal response (EC50) in data set [3] and in data set [3] (read-out: EC50 NL4-3 (wt)) were 5.72 nM and 5.72 ± 0.94 nM, respectively. Moreover, the microsomal CLint at 1 μM in data set [2] turned out to be 150 µL/min/mg.

As for `Cc1cc(/C=C/C#N)cc(C)c1Oc1cc(Nc2ccc(C#N)cc2)c(N)cc1CO` [14h, (E)-N^1-(4′-Cyanophenyl)-5-(4″-cyanovinyl-2″,6″-dimethylphenoxy)-4-hydroxymethylbenzene-1,2-diamine], the EC50 in data set [3] came out at 0.53 nM; in data set [3] (read-out: EC50 NL4-3), 0.53 nM; in data set [3] (read-out: EC50 NL4-3 (wt)) it was 0.53 ± 0.13 nM. Further, the “HLM t1/2” value in data set [2] was 30.2 min.

Compound `Cc1cc(CCC#N)cc(C)c1Oc1cc(Nc2ccc(C#N)cc2)c(N)cc1C(F)(F)F` [15a, 5-(4″-Cyanoethyl-2″,6″-dimethylphenoxy)-N^1-(4′-cyanophenyl)-4-trifluoromethylbenzene-1,2-diamine] showed a solubility at 4 h in data set [1] (0.01 M HCl, pH 2, Aqueous solubility pH 2.0, Table 4, pH 2.0, triplicate) of 0.33 µg/mL (≈ 0.733 µM). For the same compound, the “SI (selectivity index)” value in data set [3] (Table 1) is on record as above 6454. The compound also had an intrinsic clearance (microsomal CLint) at 1 μM in data set [2] of 120 µL/min/mg.

Take `COC(=O)c1cc(N)c(Nc2ccc(C#N)cc2)cc1Oc1c(C)cc(CCC#N)cc1C` [15c, 5-(4″-Cyanoethyl-2″,6″-dimethylphenoxy)-N^1-(4′-cyanophenyl)-4-methoxycarbonylbenzene-1,2-diamine]: in data set [2], the intrinsic metabolic clearance (microsomal CLint) at 1 μM is 40 µL/min/mg.

Consider `Cc1cc(CCC#N)cc(C)c1Oc1cc(Nc2ccc(C#N)cc2)c(N)cc1C(N)=O` [15e, 4-Carbanoyl-N^1-(4′-cyanophenyl)-5-(4″-cyanoethyl-2″,6″-dimethylphenoxy)benzene-1,2-diamine], for which the microsomal CLint at 1 μM in data set [2] came to 160 µL/min/mg.

For the compound `CNC(=O)c1cc(N)c(Nc2ccc(C#N)cc2)cc1Oc1c(C)cc(CCC#N)cc1C` [15f, 5-(4″-Cyanoethyl-2″,6″-dimethylphenoxy)-N^1-(4′-cyanophenyl)-4-methylcarbanoylbenzene-1,2-diamine], the microsomal CLint at 1 μM in data set [2] was determined as 120 µL/min/mg.

For the compound `Cc1cc(CCC#N)cc(C)c1Oc1cc(Nc2ccc(C#N)cc2)c(N)cc1CO` [15h, 5-(4″-Cyanoethyl-2″,6″-dimethylphenoxy)-N^1-(4′-cyanophenyl)-4-hydroxymethylbenzene-1,2-diamine], the intrinsic metabolic clearance (microsomal CLint) at 1 μM in data set [2] amounted to 330 µL/min/mg.

As for `Cc1cc(CCC#N)cc(C)c1Oc1cc(Nc2ccc(C#N)cc2)c(N)cc1N` [15i, 5-(4″-Cyanoethyl-2″,6″-dimethyl)phenoxy-N^1-(4′-cyanophenyl)benzene-1,2,4-triamine], the “SI (selectivity index)” value in data set [3] (Table 2) is listed as above 3906.

Broadly, the CC50 is the concentration at which the toxic effect on the cells reaches its halfway point. Higher therefore signals better tolerance by the cells. Take `Cc1cc(/C=C/C#N)cc(C)c1Nc1ccnc(Nc2ccc(C#N)cc2)n1` [compound 2, rilpivirine, reference compound]: in data set [2], the “HLM t1/2” value worked out at 34.2 min. The same compound registered a half-maximal cytotoxic concentration (CC50) at 4 days in data set [4] of 19400 nM.

As to `Cc1cc(/C=C/C#N)cc(C)c1Oc1cc(Nc2ccc(C#N)cc2)c(N)cc1[N+](=O)[O-]` [compound 3], the solubility at 4 h in data set [1] came to 0.29 µg/mL (≈ 0.682 µM).
